According to US20210052621A1, “METHODS FOR TREATING FLAVIVIRUSES AND ZIKA INFECTIONS” (THE REGENTS OF THE UNIVERSITY OF CALIFORNIA, priority 2017, published 2021):
Entries after “also recorded” stand apart in the source; their conditions may differ. Structures can show the parent of a compound that is named as a salt.

tested on: Zika virus in 293 T cells; test: Dose dependent inhibition of Zika virus in 293 T cells, IC50 calculated; assay type: cell-based; conditions: MOI of 5, different concentration of drugs
Procedure: FIGS. 2A-2D. […] FIG. 2A—Lopinavir. FIG. 2B—Daclatasvir. FIG. 2C—Oxyclozanide. FIG. 2D—Rafoxanide.
Conditions: Zika virus in 293 T cells at the MOI of 5 using different concentration of drugs. IC50 was calculated.

| Compound | Dose dependent inhibition of Zika virus |
| --- | --- |
| O=C(Nc1cc(Cl)cc(Cl)c1O)c1c(O)c(Cl)cc(Cl)c1Cl [Oxyclozanide] | Dose dependent inhibition |
| Cc1cccc(C)c1OCC(=O)N[C@@H](Cc1ccccc1)[C@@H](O)C[C@H](Cc1ccccc1)NC(=O)[C@H](C(C)C)N1CCCNC1=O [Lopinavir, (2S)—N-[(2S,4S,5S)-5-[2-(2,6-dimethylphenoxy)acetamido]-4-hydroxy-1,6-diphenylhexan-2-yl]-3-methyl-2-(2-oxo-1,3-diazinan-1-yl)butanamide] | Dose dependent inhibition |
| O=C(Nc1ccc(Oc2ccc(Cl)cc2)c(Cl)c1)c1cc(I)cc(I)c1O [Rafoxanide] | Dose dependent inhibition |

tested on: ZIKA in Vero cells; test: Screening of additional compounds for ZIKA levels using Vero cells (viral RNA released, qRT-PCR); assay type: cell-based, Zika virus; conditions: 10 μM, viral RNA released by qRT-PCR
Procedure: FIG. 6. Screening of additional compounds for ZIKA levels using Vero cells (in 10 μM concentration). Methods of screening were as described herein. Viral RNA released was analyzed by qRT-PCR for ZIKA. Compounds (left to right): control, berberine, fluoxetine, formoterol, genistine, U0126, dibucaine, pirlindole, suramin, mycophenolic acid, polyhydroxyalkanoates, (PHA) and niclosamide.
FIG. 7. Screening of additional compounds for ZIKA levels using Vero cells (in 10 μM concentration) as described for FIG. 6. Compounds (left to right): clomiphene, amphotericin B, and toremifene.
FIG. 8. Screening of additional compounds for ZIKA levels using Vero cells (in 10 μM concentration) as described for FIG. 6.
FIG. 6 depicts ZIKV levels as determined by qRT-PCR for ZIKA in Vero cells at 10 μM concentration (left to right) of control, berberine, fluoxentine, formoterol, genistine, U0126, dibucaine, pirlindole, suramin, mycophenolic acid, PHA, and niclosamide.
FIG. 7 depicts dose response studies on ZIKV levels for clomiphene, amphotericin B, and toremifene.
FIG. 8 depicts ZIKV levels after administration of various agents. […] Zidovudine. Acyclovir. Drostanolone Propionate, Dapivirine (TMC120), Tilorone hydrochloride, and Docosanol.

| Compound | ZIKV levels / ZIKV load (Hits) |
| --- | --- |
| Cc1cc(C)c(Nc2ccnc(Nc3ccc(C#N)cc3)n2)c(C)c1 [Dapivirine (TMC120), 4-{[4-(mesitylamino)-2-pyrimidinyl]amino}benzonitrile] | reduce ZIKV load |
| CCN(CC)CCOc1ccc2c(c1)C(=O)c1cc(OCCN(CC)CC)ccc1-2.Cl [Tilorone hydrochloride, 2,7-Bis(2-diethylaminoethoxy)fluoren-9-one hydrochloride] | reduce ZIKV load |
| Cc1cn([C@H]2C[C@H](N=[N+]=[N-])[C@@H](CO)O2)c(=O)[nH]c1=O [Zidovudine, 3′-deoxy-3′-azido-thymidine] | reduce ZIKV load |
| Nc1nc2c(ncn2COC(CO)CO)c(=O)[nH]1 [Ganciclovir, 9-(1,3-dihydroxy-2-propoxymethyl)guanine] | reduce ZIKV load |
| CCN(CC)CCOC(=O)c1ccc(N)cc1 [Procaine hydrochloride, 4-amino-, 2-(diethylamino) ethyl ester monohydrochloride] | reduce ZIKV load |
| CCCCCCCCCCCCCCCCCCCCCCO [Docosanol] | reduce ZIKV load |

tested on: ZIKA in 293 cells; test: ZIKA inhibition in 293 cells visualized by immune staining; assay type: cell-based, Zika virus; conditions: 20 μM
From the text: FIGS. 9A-9K. […] Drugs: mock (FIG. 9A), DMSO (FIG. 9B), PHA-690509 (FIG. 9C), formoterol (FIG. 9D), fluoxetine (FIG. 9E), genistein (FIG. 9F), U0126 (FIG. 9G), berberine (FIG. 9H), dibucaine (FIG. 9I), pirlindole (FIG. 9J), and suramin (FIG. 9K). Left panels: DAPI; right panels: ZIKV.
Agents in order (top to bottom): mock, DMSO, PHA-690509, formoterol, fluoxetine, genistein, U0126, berberine, dibucaine, pirlindole, and suramin.

| Compound | ZIKA inhibition visualized by immune staining |
| --- | --- |
| N#CC(=C(/N)Sc1ccccc1N)/C(C#N)=C(\N)Sc1ccccc1N [U0126] | ZIKA inhibition |
| Cc1ccc(C(=O)Nc2ccc(S(=O)(=O)O)c3cc(S(=O)(=O)O)cc(S(=O)(=O)O)c23)cc1NC(=O)c1cccc(NC(=O)Nc2cccc(C(=O)Nc3cc(C(=O)Nc4ccc(S(=O)(=O)O)c5cc(S(=O)(=O)O)cc(S(=O)(=O)O)c45)ccc3C)c2)c1 [suramin, 8,8′-{Carbonylbis[imino-3,1-phenylenecarbonylimino(4-methyl-3,1-phenylene)carbonylimino]}di(1,3,5-naphthalenetrisulfonic acid)] | ZIKA inhibition |
| COc1ccc2cc3[n+](cc2c1OC)CCc1cc2c(cc1-3)OCO2 [berberine] | ZIKA inhibition |
| CNCCC(Oc1ccc(C(F)(F)F)cc1)c1ccccc1 (centres unmarked) [fluoxetine, N-methyl-3-phenyl-3-[4-(trifluoromethyl)phenoxy]propan-1-amine] | ZIKA inhibition |
| COc1ccc(CC(C)NCC(O)c2ccc(O)c(NC=O)c2)cc1 (centres unmarked) [formoterol] | ZIKA inhibition |
| CC(=O)Nc1ccc([C@H](C)C(=O)Nc2ncc(C(C)C)s2)cc1 [PHA-690509] | ZIKA inhibition |
| O=c1c(-c2ccc(O)cc2)coc2cc(O)cc(O)c12 [genistein] | ZIKA inhibition |
| CCCCOc1cc(C(=O)NCCN(CC)CC)c2ccccc2n1 [dibucaine] | ZIKA inhibition |
| Cc1ccc2c(c1)c1c3n2CCNC3CCC1 (centres unmarked) [pirlindole] | ZIKA inhibition |

tested on: ZIKV in human microglial cell line; test: ZIKV replication in microglia treated with nucleoside metabolic inhibitors (RT-qPCR, immunohistochemistry); assay type: cell-based, Zika virus; conditions: MOI of 1, 1 μM and 10 μM, 48 hpi
Procedure: FIGS. 14A-14D. Nucleoside Metabolic Inhibitors Attenuate ZIKV Replication. (FIG. 14A) ZIKV replication assessed by RT-qPCR analysis 48 hours post-infection in mock, ZIKV only, ZIKV plus 1 μM floxuridine or ZIKV plus 10 μM floxuridine treated microglia. Data are presented as the mean±SEM of n=3. *p<0.05, **p<0.01 by t-test. (FIG. 14B) Immunohistochemistry of ZIKV gene expression in mock, ZIKV only, ZIKV plus 1 μM floxuridine (FUDX1) or ZIKV plus 10 μM floxuridine (FUDX10) treated microglia. Cells were stained with anti-flavivirus envelope protein (ZIKVE), and nuclei were visualized with Hoechst 33258. (FIG. 14C) ZIKV replication assessed by RT-qPCR analysis 48 hours post-infection in mock, ZIKV only, ZIKV plus fluorouracil or ZIKV plus 10 μM fluorouracil treated microglia. Data are presented as the mean±SEM of n=3. *p<0.05, **p<0.01 by t-test. […]
Since metabolic processes are the most dysregulated pathways during ZIKV infection at the transcriptome level, we hypothesized that inhibition of these pathways could be exploited for therapeutic effects. […] The effect of the antimetabolites floxuridine (FIGS. 14A-14B) and flurouracil (FIGS. 14C-14D) on ZIKV replication was assessed 48 hpi at the RNA and protein level by RT-qPCR and immunohistochemistry, respectively.
Drug Treatment. […] ZIKV RNA was quantified by using specific primers by SYBR Green PCR Master Mix (Bio-Rad) using a Roche LightCycler 480. […]

| Compound | ZIKV replication (RT-qPCR and immunohistochemistry) |
| --- | --- |
| O=c1[nH]cc(F)c(=O)[nH]1 [flurouracil] | affected ZIKV |
| O=c1[nH]c(=O)n([C@H]2C[C@H](O)[C@@H](CO)O2)cc1F [floxuridine] | inhibited ZIKV more efficiently in a dose dependent manner than flurouracil; also recorded: dose-dependent inhibition of ZIKV replication; also recorded: abrogated ZIKV replication |
